Measurements reported in patent US9061981B2, “Diphenyl substituted cyclohexane derivatives, useful as modulators of the estrogen receptors beta” (Acadia Pharmaceuticals Inc., priority 2011, dated 2015).

Experiments:
ERα [1] = target: T1, ERα (Homo sapiens, UniProt P03372); assay: R-SAT functional assay, ERα; assay type: cell-based; set-up: expressed in transfected cells; host or cells: NIH-3T3 fibroblasts, transient transfection; settings: NIH-3T3 cells
T1 sequence (P03372 1-595): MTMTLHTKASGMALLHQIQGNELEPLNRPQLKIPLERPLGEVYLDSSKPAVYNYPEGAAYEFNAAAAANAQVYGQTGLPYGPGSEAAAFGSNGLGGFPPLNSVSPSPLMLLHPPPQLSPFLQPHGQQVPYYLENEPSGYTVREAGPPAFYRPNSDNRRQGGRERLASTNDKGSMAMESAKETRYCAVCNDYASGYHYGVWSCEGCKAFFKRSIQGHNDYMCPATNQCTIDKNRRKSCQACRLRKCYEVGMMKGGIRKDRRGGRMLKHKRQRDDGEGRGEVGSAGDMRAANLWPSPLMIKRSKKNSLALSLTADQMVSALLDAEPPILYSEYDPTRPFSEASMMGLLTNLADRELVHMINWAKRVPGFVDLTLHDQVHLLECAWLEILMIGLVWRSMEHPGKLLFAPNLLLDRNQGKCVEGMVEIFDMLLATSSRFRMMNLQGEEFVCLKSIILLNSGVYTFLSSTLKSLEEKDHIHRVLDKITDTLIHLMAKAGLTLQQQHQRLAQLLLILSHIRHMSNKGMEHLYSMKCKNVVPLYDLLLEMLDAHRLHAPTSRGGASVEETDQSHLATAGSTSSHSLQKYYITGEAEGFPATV
From the text: (§1) R-SAT® (Receptor Selection and Amplification Technology) is a cell-based functional assay that allows one to monitor receptor-dependent proliferative responses and has been described elsewhere. […] This process is achieved by partial cellular transformation via loss of contact inhibition and growth factor dependency. Monitoring is achieved by transfecting the cells with a β-galactosidase reporter gene vector whose expression is under a constitutively active promoter. Briefly, NIH-3T3 fibroblasts were plated overnight in 96-wells plates in DMEM 10% calf serum (Hyclone) and grown to 60-70% confluency prior to transfection. Transient transfections were performed using Polyfect (Qiagen) according to manufacturer's instructions. Typically a transfection mix would consist of the receptor and the β-galactosidase expression vectors. Sixteen hours post-transfection, cells were incubated with different doses of ligand in DMEM containing 30% Ultraculture (Hyclone) and 0.4% calf serum (Hyclone) to generate a dose response curve. […] Plates were read using a microplate reader at 420 nm. Data from R-SAT® assays were fit to the equation: r=A+B(x/(x+c)), where A=minimum response, B=maximum response minus minimum response, c=EC50, r=response, and x=concentration of ligand. Curves were generated using the curve fitting softwares Excel Fit and GraphPad Prism (San Diego, Calif.). Luciferase Reporter Gene Assay

[2] = tested on: bilateral 6-hydroxydopamine (6OHDA) lesion of the substantia nigra; assay: Bilateral 6OHDA lesion of the substantia nigra, behavioral assessment; assay type: in vivo, Male rats; settings: 6OHDA rats, once daily 7 days sc; 10 mg/kg (estradiol 100 μg/kg)
Experimental: (§2) Male rats received baseline assessment of weight, motor function (spontaneous locomotor behavior, rotorod performance) and sensorimotor gating (prepulse inhibition). Subjects were assigned to treatment conditions to equalize performance on all these measures. Subjects were then treated once daily for 7 days with either sesame oil vehicle, estradiol (100 μg/kg sc), Comparative substance 131 (10 mg/kg sc), Compound 8 (10 mg/kg sc), Comparative substance 623 (10 mg/kg sc) or Comparative substance 957 (10 mg/kg sc). On the second day of treatment, subjects received bilateral sham or 6OHDA lesions (8 μg in 4 μl) of the substantia nigra (A/P−5.0 mm, M/L±1.6 mm, D/V−8.2 mm) following the atlas of Paxinos and Watson (Paxinos, G., Watson, C., The Rat Brain in Stereotaxic Coordinates, Fourth Edition, New York: Academic Press, Spiral Bound, 1998). Behavioral assessments of motor function (spontaneous locomotion, rotorod and traversing a challenging beam), cognition (novel object recognition) and sensorimotor gating (prepulse inhibition) began after the final day of treatment. Following behavioral assessment, SN and striatal tissue were collected in order to determine the intactness of the nigrostriatal dopamine system.

ERβ [3] = target: T2, ERβ (Homo sapiens, UniProt Q92731); assay: Competitive 3H-estradiol binding assay, ERβ; set-up: expressed in transfected cells; host or cells: HEK293 cells, transient transfection
Experimental: (§3) Cells were then harvested by scraping in ice-cold PBS and subsequently lysed using a cold buffer containing 10 mM Tris pH 7.4, 1 mM EDTA, 1 mM DTT before being subjected to polytron twice for 10 seconds. Cytosolic extracts were isolated by centrifugation at 15000 g for 30 minutes at 4° C. Competitive binding of the test compounds or the estradiol control was performed on 20 μL extract by overnight incubation at 4° C. in a total volume of 100 μL containing 1 nM ^3H-estradiol (Perkin Elmer, Boston, Mass.). The bound fraction was separated from the unbound one by the addition of 100 μL of Dextran coated charcoal, incubated for 10 minutes and subsequent centrifugation at 1000 rpm for 10 minutes. Samples (100 μL per sample) were then analyzed by liquid scintillation. Data was then analyzed using the curve fitting software GraphPad Prism.

ERα [4] = target: T1, ERα; assay: Luciferase reporter gene assay (3*ERE) in HEK293 cells, ERα; assay type: cell-based; set-up: expressed in transfected cells; host or cells: transient transfection; settings: 48 hours
Experimental: (§4) HEK293 cells were grown to 70% confluency in DMEM containing 10% calf serum (Hyclone) prior to transfection. On the day of transfection (day 1), expression vectors for ERα or ERβ were cotransfected along a construct containing a synthetic 3*ERE upstream of the luciferase gene (Panomics), using Polyfect (Qiagen) per manufacturer's recommendations (ERE being estrogen response element). Sixteen hours post-transfection, cells were incubated in serum free DMEM. […] Cells extracts were then obtained by lyzing and the Luciferase activity measured, all of these steps performed using a commercially available kit (Promega).

ERβ [5] = target: T2, ERβ; assay: R-SAT functional assay, ERβ; assay type: cell-based; set-up: expressed in transfected cells; host or cells: transient transfection
ERβ [6] = target: T2, ERβ; assay: R-SAT functional assay, ERβ; assay type: cell-based; set-up: expressed in transfected cells; host or cells: transient transfection; settings: NIH3T3; NIH-3T3 cells; read-out: R-SAT Erβ % Eff
From the text: as §1

ERα [7] = target: T1, ERα; assay: Competitive 3H-estradiol binding assay, ERα; settings: 1 nM 3H-estradiol, HEK293T cytosolic extract; read-out: Binding ERα pKi (converted)
Experimental: as §3, with “HEK293T cells were transiently transfected for 48 hours with expression vectors encoding ERα or ERβ, before being serum starved for 4-6 hours. Cells” for “Cells”

ERβ [8] = target: T2, ERβ; assay: Luciferase reporter gene assay (3*ERE) in HEK293 cells, ERβ; assay type: cell-based; set-up: expressed in transfected cells; host or cells: HEK293 cells, transient transfection
Experimental: as §4

[9] = tested on: nigrostriatal dopamine neurons; assay: Tyrosine hydroxylase immunofluorescence in SN and STR after 6OHDA lesion; assay type: in vivo, Male rats; settings: 6OHDA rats, once daily 7 days sc; 10 mg/kg (estradiol 100 μg/kg)
Experimental: as §2
Comparative compound 131 and Compound 8 were compared with estradiol for their ability to protect nigrostriatal dopamine neurons as measured by tyrosine hydroxylase (TH) immunohistochemistry in the SN and striatum (STR).

[10] = Microsomal bioavailability (Table 2); assay type: in vitro ADME; settings: read-out: Microsomal bioavailability F (%)

T2 sequence (Q92731 whole entry, species assumed): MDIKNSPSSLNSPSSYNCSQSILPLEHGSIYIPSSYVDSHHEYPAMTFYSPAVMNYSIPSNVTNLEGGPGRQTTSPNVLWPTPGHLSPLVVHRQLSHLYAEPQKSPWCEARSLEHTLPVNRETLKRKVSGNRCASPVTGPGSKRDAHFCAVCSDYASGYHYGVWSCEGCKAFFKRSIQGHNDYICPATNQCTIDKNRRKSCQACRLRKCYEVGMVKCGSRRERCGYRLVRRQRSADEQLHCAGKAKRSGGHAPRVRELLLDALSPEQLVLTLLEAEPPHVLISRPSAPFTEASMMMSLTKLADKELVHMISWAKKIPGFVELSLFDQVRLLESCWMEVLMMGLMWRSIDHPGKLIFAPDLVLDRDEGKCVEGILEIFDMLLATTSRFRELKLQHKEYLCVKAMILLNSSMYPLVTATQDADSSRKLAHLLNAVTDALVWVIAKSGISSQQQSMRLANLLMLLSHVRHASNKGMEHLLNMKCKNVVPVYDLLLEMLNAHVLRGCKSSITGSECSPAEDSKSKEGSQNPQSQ

## Oc1ccc(C2(c3ccccc3)CCCCC2)cc1 [Compound 131]
ERα [1]
  R-SAT Erα % Eff: 42%
[2]
  motor performance (spontaneous locomotor activity, rotorod, challenging beam): prevented the impairment
  novel object recognition (cognition): showed improved memory
  prepulse inhibition (sensorimotor gating): prevented the 6OHDA-induced deficit in PPI
ERβ [3]
  Ki: 0.0501 µM
ERα [4]
  Luciferase Erα % Eff: 29%
ERα [4]; na = not active, read-out: Luciferase Erα pEC50 (converted)
  EC50: 15.8 µM
ERβ [5]
  EC50: 0.0316 µM
ERβ [6]
  Emax: 71%
ERα [7]
  Ki: 1 µM
ERβ [8]
  EC50: 0.02 µM
ERβ [8]; HEK293 cells, 48 hours, read-out: Luciferase Erβ % Eff
  Emax: 80%
[9]
  percent immunopositive and mean pixel intensity of TH immunofluorescence in the STR: increase in percentage of the image that was immunopositive and increased mean pixel intensity
  percent immunopositive, mean cell size and mean pixel intensity of TH immunofluorescence in the SN: improved percent immunopositive, mean cell size and mean pixel intensity
  tyrosine hydroxylase positive cell number in the SN: prevented the reduction in cell number
[10]
  Microsomal bioavailability (predicted from microsomes): 0%
